Assay results as given in ChEMBL document CHEMBL5120874, “Tanzawaic Acid Derivatives: Fungal Polyketides from the Deep-Sea Coral-Derived Endozoic Penicillium steckii AS-324” (2022).
Converted amounts (≈) assume the structure as drawn.

Key:
Type in all cases: functional
[1] = system: Vibrio anguillarum; assay: Antibacterial activity against Vibrio anguillarum QDIO-6 assessed as inhibition of bacterial growth by serial dilution method
[2] = system: Escherichia coli; assay: Antibacterial activity against Escherichia coli EMBLC-1 assessed as inhibition of bacterial growth by serial dilution method
[3] = system: Aeromonas hydrophila; assay: Antibacterial activity against Aeromonas hydrophila QDIO-1 assessed as inhibition of bacterial growth by serial dilution method
[4] = system: Micrococcus luteus; assay: Antibacterial activity against Micrococcus luteus QDIO-3 assessed as inhibition of bacterial growth by serial dilution method
[5] = system: Vibrio parahaemolyticus; assay: Antibacterial activity against Vibrio parahaemolyticus QDIO-8 assessed as inhibition of bacterial growth by serial dilution method
[6] = system: Edwardsiella tarda; assay: Antibacterial activity against Edwardsiella tarda QDIO-2 assessed as inhibition of bacterial growth by serial dilution method
[7] = system: Pseudomonas aeruginosa; assay: Antibacterial activity against Pseudomonas aeruginosa QDIO-4 assessed as inhibition of bacterial growth by serial dilution method
[8] = system: Vibrio alginolyticus; assay: Antibacterial activity against Vibrio alginolyticus QDIO-5 assessed as inhibition of bacterial growth by serial dilution method

| Compound | MIC [1] | MIC [2] | MIC [3] | MIC [4] | MIC [6] | MIC [7] | MIC [8] | MIC [5] |
| --- | --- | --- | --- | --- | --- | --- | --- | --- |
| Cc1ccc2c(c1/C=C/C=C/C(=O)O)[C@H](C)C[C@@](C)(O)C2 | > 64 µg/mL | > 64 µg/mL | > 64 µg/mL | > 64 µg/mL | > 64 µg/mL | 16 µg/mL (≈ 55.9 µM) | > 64 µg/mL | > 64 µg/mL |
| C[C@H]1C=C[C@H]2C[C@@H](CO)C[C@](C)(O)[C@@H]2[C@H]1/C=C/C=C/C(=O)O | > 64 µg/mL | > 64 µg/mL | > 64 µg/mL | > 64 µg/mL | > 64 µg/mL | 4 µg/mL (≈ 13.1 µM) | > 64 µg/mL | > 64 µg/mL |
| CO[C@]1(C)C=C[C@H]2C[C@@H](CO)C[C@@H](C)[C@@H]2[C@H]1/C=C/C=C/C(=O)O | 8 µg/mL (≈ 25 µM) | > 64 µg/mL | > 64 µg/mL | > 64 µg/mL | > 64 µg/mL | > 64 µg/mL | > 64 µg/mL | 64 µg/mL (≈ 200 µM) |
| C[C@@H]1C[C@H](CO)C[C@@H]2C=C[C@@](C)(O)[C@](O)(/C=C/C=C/C(=O)O)[C@@H]12 | 8 µg/mL (≈ 24.8 µM) | > 64 µg/mL | > 64 µg/mL | > 64 µg/mL | > 64 µg/mL | > 64 µg/mL | 32 µg/mL (≈ 99.3 µM) | 64 µg/mL (≈ 199 µM) |
| Cc1ccc2c(c1/C=C/C=C/C(=O)O)[C@H](C)C[C@H](C)[C@@H]2O | 4 µg/mL (≈ 14 µM) | 64 µg/mL (≈ 223 µM) | 32 µg/mL (≈ 112 µM) | 64 µg/mL (≈ 223 µM) | > 64 µg/mL | > 64 µg/mL | 32 µg/mL (≈ 112 µM) | 32 µg/mL (≈ 112 µM) |
| C[C@@H]1C[C@@H]2C=C[C@H](C)[C@H](/C=C/C=C/C(=O)O)[C@H]2[C@@](C)(O)C1 | > 64 µg/mL | 64 µg/mL (≈ 220 µM) | > 64 µg/mL | > 64 µg/mL | > 64 µg/mL | > 64 µg/mL | 32 µg/mL (≈ 110 µM) | 64 µg/mL (≈ 220 µM) |
| CC1C=C[C@H]2C[C@@H](CO)C[C@@H](C)[C@@H]2[C@H]1/C=C/C=C/C(=O)O (stereo not given in full) | > 64 µg/mL | 64 µg/mL (≈ 220 µM) | 64 µg/mL (≈ 220 µM) | 8 µg/mL (≈ 27.5 µM) | > 64 µg/mL | > 64 µg/mL | 8 µg/mL (≈ 27.5 µM) | > 64 µg/mL |
| CO[C@@]1(C)C=C[C@H]2C[C@@H](CO)C[C@@H](C)[C@@H]2[C@H]1/C=C/C=C/C(=O)O | > 64 µg/mL | 8 µg/mL (≈ 25 µM) | > 64 µg/mL | > 64 µg/mL | > 64 µg/mL | > 64 µg/mL | 32 µg/mL (≈ 99.9 µM) | > 64 µg/mL |
| O=C(N[C@H](CO)[C@H](O)c1ccc([N+](=O)[O-])cc1)C(Cl)Cl [CHLORAMPHENICOL] | 2 µg/mL (≈ 6.19 µM) | 1 µg/mL (≈ 3.09 µM) | 1 µg/mL (≈ 3.09 µM) | 0.5 µg/mL (≈ 1.55 µM) | 2 µg/mL (≈ 6.19 µM) | 1 µg/mL (≈ 3.09 µM) | 2 µg/mL (≈ 6.19 µM) | 1 µg/mL (≈ 3.09 µM) |

Continued, in another order:

| MIC [1] | MIC [2] | MIC [3] | MIC [4] | MIC [6] | MIC [7] | MIC [8] | Compound | MIC [5] |
| --- | --- | --- | --- | --- | --- | --- | --- | --- |
| > 64 µg/mL | > 64 µg/mL | 64 µg/mL (≈ 227 µM) | > 64 µg/mL | > 64 µg/mL | > 64 µg/mL | 32 µg/mL (≈ 113 µM) | Cc1cc(C)c2c(/C=C/C=C/C(=O)O)c(CO)ccc2c1 | 64 µg/mL (≈ 227 µM) |
| > 64 µg/mL | > 64 µg/mL | > 64 µg/mL | > 64 µg/mL | > 64 µg/mL | > 64 µg/mL | 64 µg/mL (≈ 215 µM) | Cc1cc(CO)cc2ccc(CO)c(/C=C/C=C/C(=O)O)c12 | > 64 µg/mL |
| > 64 µg/mL | > 64 µg/mL | > 64 µg/mL | > 64 µg/mL | > 64 µg/mL | > 64 µg/mL | > 64 µg/mL | Cc1cc(CO)cc2ccc(CO)c(/C=C\C=C\C(=O)O)c12 | > 64 µg/mL |
| 4 µg/mL (≈ 14 µM) | > 64 µg/mL | > 64 µg/mL | > 64 µg/mL | > 64 µg/mL | > 64 µg/mL | > 64 µg/mL | Cc1ccc2c(c1/C=C/C=C/C(=O)O)[C@H](C)C[C@H](CO)C2 | 64 µg/mL (≈ 223 µM) |
| 4 µg/mL (≈ 13.3 µM) | 64 µg/mL (≈ 213 µM) | > 64 µg/mL | > 64 µg/mL | > 64 µg/mL | > 64 µg/mL | > 64 µg/mL | Cc1ccc2c(c1/C=C/C=C/C(=O)O)[C@H](C)C[C@@](C)(O)C2=O | 64 µg/mL (≈ 213 µM) |
| > 64 µg/mL | 64 µg/mL (≈ 227 µM) | > 64 µg/mL | 2 µg/mL (≈ 7.08 µM) | 64 µg/mL (≈ 227 µM) | > 64 µg/mL | 16 µg/mL (≈ 56.7 µM) | Cc1ccc2cc(CO)cc(C)c2c1/C=C/C=C/C(=O)O | 32 µg/mL (≈ 113 µM) |
